Several values for one entry are separate records, joined by “and”; a condition that tells them apart may be missing. Equal entries are not always repeated.
Tests used:
[1] = system: sarcosine oxidase (Toyobo); assay: Toyobo Sarcosine Oxidase Enzyme Absorbance with BSA and Proclin 300; assay type: biochemical
Text: Absorbance measurements of the sarcosine oxidase enzyme(s) were taken via spectrophotometer for each aqueous solution (represented as columns 1-5 in Tables 1-4—column 6 is a blank), the absorbance being directly proportional to the enzyme activity being measured-which for Tables 1-4 is sarcosine oxidase enzyme activity. Accordingly, the higher the absorbance measurement, the higher the enzyme activity of sarcosine oxidase. […] In addition, the mean values, standard deviations, and coefficients of variation are also presented for the enzyme activity/absorbance of each aqueous solution. All measurements were taken at 37° C.

[2] = system: creatininase (Toyobo); assay: Toyobo Creatininase Enzyme Absorbance with BSA and MIT; assay type: biochemical; settings: Day 0
Text: Absorbance measurements of the creatininase enzyme(s) were taken via spectrophotometer for each aqueous solution (represented as columns 1-5 in Tables 5-8—column 6 is a blank), the absorbance being directly proportional to the enzyme activity being measured-which for Tables 5-8 is creatininase enzyme activity. Accordingly, the higher the absorbance measurement, the higher the enzyme activity of creatininase. Columns 7-11 represent five replicate readings in which the solution only contains BSA (i.e., there is no biocide(s) present in the solution). In addition, the mean values, standard deviations, and coefficients of variation are all presented for the enzyme activity/absorbance of each aqueous solution. All measurements were taken at 37° C.
As depicted in Table 6, creatininase (commercially offered for sale by Toyobo) enzyme activity is measured against various concentrations of MIT (biocide) and BSA (scavenger protein) over a period of 14 days (with absorbance measurement taken at 0, 4, and 14 days) for five different aqueous solutions (represented as columns 1-5—column 6 is a blank).

[3] = Day 0, BSA 5 mg/mL only, no Proclin 300, line of 0.7% Proclin 300
[4] = Day 0, BSA 5 mg/mL only, no Proclin 300, line of 1.4% Proclin 300
[5] = Day 0, BSA 25 mg/mL only, no Proclin 300, line of 0.7% Proclin 300
[6] = Day 0, BSA 25 mg/mL only, no Proclin 300, line of 1.4% Proclin 300
[7] = Day 0, BSA 50 mg/mL only, no Proclin 300, line of 0.7% Proclin 300
[8] = Day 0, BSA 50 mg/mL only, no Proclin 300, line of 1.4% Proclin 300
[9] = 5 mg/mL BSA, no MIT (row of 50 ppm MIT)
[10] = 5 mg/mL BSA, no MIT (row of 100 ppm MIT)
[11] = 25 mg/mL BSA, no MIT (row of 50 ppm MIT)
[12] = 25 mg/mL BSA, no MIT (row of 100 ppm MIT)
[13] = 50 mg/mL BSA, no MIT (row of 50 ppm MIT)
[14] = 50 mg/mL BSA, no MIT (row of 100 ppm MIT)

With bovine serum albumin [BSA] the “Absorbance, solutions 7-11” value [1, 3] was 1.419, the “MEAN absorbance, solutions 7-11” value [1, 3] was 1.39 and the “Absorbance, solutions 7-11” value [1, 4] was 1.397 and 1.427 and 1.404. The “MEAN absorbance, solutions 7-11” value [1, 4] was 1.35, the “Absorbance, solutions 7-11” value [1, 5] was 1.443 and the “MEAN absorbance, solutions 7-11” value [1, 5] was 1.40. For the same substance, the “Absorbance, solutions 7-11” value [1, 6] was 1.403 and 1.426 and 1.429 and 1.44, the “MEAN absorbance, solutions 7-11” value [1, 6] was 1.37 and the “Absorbance, solutions 7-11” value [1, 7] was 1.418. For the same substance, the “MEAN absorbance, solutions 7-11” value [1, 7] was 1.39, the “Absorbance, solutions 7-11” value [1, 8] was 1.409 and 1.41 and 1.444 and the “MEAN absorbance, solutions 7-11” value [1, 8] was 1.37. The “MEAN absorbance, solutions 7-11” value ([1]; Day 4, BSA 5 mg/mL only, no Proclin 300, line of 0.7% Proclin 300) was 0.81, the “MEAN absorbance, solutions 7-11” value ([1]; Day 4, BSA 5 mg/mL only, no Proclin 300, line of 1.4% Proclin 300) was 0.86 and the “MEAN absorbance, solutions 7-11” value ([1]; Day 4, BSA 25 mg/mL only, no Proclin 300, line of 0.7% Proclin 300) was 1.30. For the same substance, the “MEAN absorbance, solutions 7-11” value ([1]; Day 4, BSA 25 mg/mL only, no Proclin 300, line of 1.4% Proclin 300) was 1.32, the “MEAN absorbance, solutions 7-11” value ([1]; Day 4, BSA 50 mg/mL only, no Proclin 300, line of 0.7% Proclin 300) was 1.31 and the “MEAN absorbance, solutions 7-11” value ([1]; Day 4, BSA 50 mg/mL only, no Proclin 300, line of 1.4% Proclin 300) was 1.32. For the same substance, the “MEAN absorbance, solutions 7-11” value ([1]; Day 14, BSA 5 mg/mL only, no Proclin 300, line of 0.7% Proclin 300) was 0.25, the “MEAN absorbance, solutions 7-11” value ([1]; Day 14, BSA 5 mg/mL only, no Proclin 300, line of 1.4% Proclin 300) was 0.29 and the “MEAN absorbance, solutions 7-11” value ([1]; Day 14, BSA 25 mg/mL only, no Proclin 300, line of 0.7% Proclin 300) was 1.34. The “MEAN absorbance, solutions 7-11” value ([1]; Day 14, BSA 25 mg/mL only, no Proclin 300, line of 1.4% Proclin 300) was 1.34, the “MEAN absorbance, solutions 7-11” value ([1]; Day 14, BSA 50 mg/mL only, no Proclin 300, line of 1.4% Proclin 300) was 1.39 and the “absorbance of the sarcosine oxidase enzyme compared to samples containing 0 mg/mL of BSA” value ([1]; days 4 and 14, 5, 25 and 50 mg/mL BSA, with Proclin 300) was “increased absorbance”. For the same substance, the “sarcosine oxidase absorbance, solutions 7-11” value ([1]; days 4 and 14, only BSA, no Proclin 300) was “increased (or at least maintained)”, the “Creatininase Enzyme Absorbance, columns 7-11” value [2, 9] was 0.791 and 0.78 and the “MEAN (columns 7-11)” value [2, 9] was 0.59. The “Creatininase Enzyme Absorbance, columns 7-11” value [2, 10] was 0.806 and 0.802 and 0.845, the “MEAN (columns 7-11)” value [2, 10] was 0.61 and the “Creatininase Enzyme Absorbance, columns 7-11” value [2, 11] was 0.767. The “MEAN (columns 7-11)” value [2, 11] was 0.58, the “Creatininase Enzyme Absorbance, columns 7-11” value [2, 12] was 0.751 and 0.768 and 0.799 and 0.806 and the “MEAN (columns 7-11)” value [2, 12] was 0.57. The “Creatininase Enzyme Absorbance, columns 7-11” value [2, 13] was 0.845, the “MEAN (columns 7-11)” value [2, 13] was 0.64 and the “Creatininase Enzyme Absorbance, columns 7-11” value [2, 14] was 0.735 and 0.782 and 0.778. The “MEAN (columns 7-11)” value [2, 14] was 0.55, the “% Bias” value ([2]; 50 ppm MIT vs no MIT, 5 mg/mL BSA) was 6.6% and the “% Bias” value ([2]; 50 ppm MIT vs no MIT, 25 mg/mL BSA) was 8.6%. The “% Bias” value ([2]; 50 ppm MIT vs no MIT, 50 mg/mL BSA) was 4.9%, the “Creatininase Enzyme Absorbance” value ([2]; 50 ppm MIT, 5 mg/mL BSA) was 0.893 and 0.808 and 0.806 and 0.812 and 0.843 and the “MEAN” value ([2]; 50 ppm MIT, 5 mg/mL BSA) was 0.63. For the same substance, the “Creatininase Enzyme Absorbance” value ([2]; 50 ppm MIT, 25 mg/mL BSA) was 0.895 and 0.829 and 0.788 and 0.82 and 0.831, the “MEAN” value ([2]; 50 ppm MIT, 25 mg/mL BSA) was 0.63 and the “Creatininase Enzyme Absorbance” value ([2]; 50 ppm MIT, 50 mg/mL BSA) was 0.905 and 0.862 and 0.847 and 0.863 and 0.895. The “MEAN” value ([2]; 50 ppm MIT, 50 mg/mL BSA) was 0.67, the “% Bias” value ([2]; 100 ppm MIT vs no MIT, 5 mg/mL BSA) was 7.6% and the “% Bias” value ([2]; 100 ppm MIT vs no MIT, 25 mg/mL BSA) was 10.4%. The “% Bias” value ([2]; 100 ppm MIT vs no MIT, 50 mg/mL BSA) was 10.1%, the “Creatininase Enzyme Absorbance” value ([2]; 100 ppm MIT, 5 mg/mL BSA) was 0.922 and 0.849 and 0.843 and 0.844 and 0.859 and the “MEAN” value ([2]; 100 ppm MIT, 5 mg/mL BSA) was 0.66. The “Creatininase Enzyme Absorbance” value ([2]; 100 ppm MIT, 25 mg/mL BSA) was 0.905 and 0.838 and 0.807 and 0.795 and 0.811 and the “MEAN” value ([2]; 100 ppm MIT, 25 mg/mL BSA) was 0.63.

Source: US11339419B2, “Scavenger protein(s) for improved preservation of analyte detection sensor(s) and method(s) of use thereof” (Siemens Healthcare Diagnostics Inc., priority 2017, dated 2022)
